Test results as given in ChEMBL document CHEMBL1221290, “Novel imidazobenzazepine derivatives as dual H1/5-HT2A antagonists for the treatment of sleep disorders” (Bioorg Med Chem Lett, 2010).

biological target: 5-hydroxytryptamine receptor 2A (Homo sapiens, UniProt P28223); assay: Antagonist activity at human 5HT2A receptor expressed in HEK cells assessed as intracellular calcium luminescence by aequorin assay; format: functional, cell-based, HEK293; conditions: not given
Sequence (P28223 whole entry): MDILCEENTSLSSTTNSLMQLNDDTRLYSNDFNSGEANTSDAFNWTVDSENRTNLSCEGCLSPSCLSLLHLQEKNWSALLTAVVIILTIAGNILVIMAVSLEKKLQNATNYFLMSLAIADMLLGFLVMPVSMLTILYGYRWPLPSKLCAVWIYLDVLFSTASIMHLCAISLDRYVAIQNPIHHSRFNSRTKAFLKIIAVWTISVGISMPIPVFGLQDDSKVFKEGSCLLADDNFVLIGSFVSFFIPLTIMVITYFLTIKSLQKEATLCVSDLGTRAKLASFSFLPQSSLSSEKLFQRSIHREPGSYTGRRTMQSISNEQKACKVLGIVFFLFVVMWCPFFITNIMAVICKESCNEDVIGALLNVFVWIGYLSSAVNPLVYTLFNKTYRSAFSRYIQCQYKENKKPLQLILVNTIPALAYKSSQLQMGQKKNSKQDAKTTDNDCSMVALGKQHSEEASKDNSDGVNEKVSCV

| SMILES | Ki |
| --- | --- |
| Cc1cn2c(n1)C(N1CCN(CC(C)(C)C(=O)O)CC1)=Cc1ccccc1C2 | 126 nM |
| CC(C)(CN1CCN(C2=Cc3ccccc3Cn3cc(F)nc32)CC1)C(=O)O | 100 nM |
| COc1cnc2n1Cc1ccccc1C=C2N1CCN(CC(C)(C)C(=O)O)CC1 | 251 nM |
| O=C(O)C1CCC(N2CCN(C3=Cc4ccccc4Cn4ccnc43)CC2)CC1 (single isomer, unassigned; isomer 1) | 631 nM |
| O=C(O)C1CC(N2CCN(C3=Cc4ccccc4Cn4ccnc43)CC2)C1 (stereo in doubt; 13) | > 794 nM |
| O=C(O)C1CCC(N2CCN(C3=Cc4ccccc4Cn4ccnc43)CC2)CC1 (stereo in doubt; 16) | 501 nM |

same assay, conditions: hek293

| SMILES | pKi |
| --- | --- |
| O=C(O)C1CC(N2CCN(C3=Cc4ccccc4Cn4ccnc43)CC2)C1 (single isomer, unassigned; isomer 2) | < 6.1 |

biological target: T1, 5-hydroxytryptamine receptor 2C (Homo sapiens, UniProt P28335); assay: Antagonist activity at human 5HT2C receptor expressed in human SHSY5Y cells by FLPR assay; format: functional, cell-based, SH-SY5Y; conditions: not given
T1 sequence (P28335 whole entry): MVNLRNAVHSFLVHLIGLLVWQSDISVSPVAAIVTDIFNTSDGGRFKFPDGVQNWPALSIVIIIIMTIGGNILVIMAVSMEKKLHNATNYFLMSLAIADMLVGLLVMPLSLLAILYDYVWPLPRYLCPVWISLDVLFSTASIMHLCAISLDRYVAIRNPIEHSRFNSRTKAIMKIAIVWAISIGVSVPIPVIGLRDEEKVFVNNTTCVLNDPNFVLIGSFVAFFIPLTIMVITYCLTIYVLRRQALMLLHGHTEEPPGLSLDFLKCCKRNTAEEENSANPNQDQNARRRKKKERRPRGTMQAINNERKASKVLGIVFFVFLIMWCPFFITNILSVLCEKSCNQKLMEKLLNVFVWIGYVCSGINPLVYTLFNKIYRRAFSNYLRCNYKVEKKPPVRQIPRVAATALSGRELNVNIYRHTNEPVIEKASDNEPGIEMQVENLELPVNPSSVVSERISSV

| SMILES | Ki |
| --- | --- |
| Cc1cn2c(n1)C(N1CCN(CC(C)(C)C(=O)O)CC1)=Cc1ccccc1C2 | 31.6 nM |
| CC(C)(CN1CCN(C2=Cc3ccccc3Cn3cc(F)nc32)CC1)C(=O)O | 316 nM |
| COc1cnc2n1Cc1ccccc1C=C2N1CCN(CC(C)(C)C(=O)O)CC1 | 501 nM |
| O=C(O)C1CCC(N2CCN(C3=Cc4ccccc4Cn4ccnc43)CC2)CC1 (single isomer, unassigned; isomer 1) | > 2000 nM |
| O=C(O)C1CC(N2CCN(C3=Cc4ccccc4Cn4ccnc43)CC2)C1 (stereo in doubt; 13) | > 794 nM |

same assay, conditions: sh-sy5y

| SMILES | pKi |
| --- | --- |
| O=C(O)C1CC(N2CCN(C3=Cc4ccccc4Cn4ccnc43)CC2)C1 (single isomer, unassigned; isomer 2) | < 6.1 |
| O=C(O)C1CCC(N2CCN(C3=Cc4ccccc4Cn4ccnc43)CC2)CC1 (stereo in doubt; 16) | < 5.7 |

tested on: not listed separately; assay: AUC (0 to 8 hrs) ratio of drug level in brain to blood in rat at 1 mg/kg, po; format: ADME, organism-based; set-up: dose 1 mg/kg, route oral; conditions: read-out: Ratio AUC

| SMILES | Kp |
| --- | --- |
| CC(C)(CN1CCN(C2=Cc3ccccc3Cn3cc(F)nc32)CC1)C(=O)O | 0.04 |

tested on: not listed separately; assay: Blood clearance in rat at 0.5 mg/kg, iv and 1 mg/kg, po; format: ADME, organism-based; conditions: not given

| SMILES | clearance |
| --- | --- |
| CC(C)(CN1CCN(C2=Cc3ccccc3Cn3cc(F)nc32)CC1)C(=O)O | 10 mL/min/kg |

tested on: not listed separately; assay: Oral bioavailability in rat at 1 mg/kg; format: ADME, organism-based; conditions: in vivo

| SMILES | bioavailability |
| --- | --- |
| CC(C)(CN1CCN(C2=Cc3ccccc3Cn3cc(F)nc32)CC1)C(=O)O | 45% |

biological target: 5-hydroxytryptamine receptor 2B (Homo sapiens, UniProt P41595); assay: Antagonist activity at human 5HT2B receptor expressed in human SHSY5Y cells by FLPR assay; format: functional, cell-based, SH-SY5Y; conditions: not given
Sequence (P41595 whole entry): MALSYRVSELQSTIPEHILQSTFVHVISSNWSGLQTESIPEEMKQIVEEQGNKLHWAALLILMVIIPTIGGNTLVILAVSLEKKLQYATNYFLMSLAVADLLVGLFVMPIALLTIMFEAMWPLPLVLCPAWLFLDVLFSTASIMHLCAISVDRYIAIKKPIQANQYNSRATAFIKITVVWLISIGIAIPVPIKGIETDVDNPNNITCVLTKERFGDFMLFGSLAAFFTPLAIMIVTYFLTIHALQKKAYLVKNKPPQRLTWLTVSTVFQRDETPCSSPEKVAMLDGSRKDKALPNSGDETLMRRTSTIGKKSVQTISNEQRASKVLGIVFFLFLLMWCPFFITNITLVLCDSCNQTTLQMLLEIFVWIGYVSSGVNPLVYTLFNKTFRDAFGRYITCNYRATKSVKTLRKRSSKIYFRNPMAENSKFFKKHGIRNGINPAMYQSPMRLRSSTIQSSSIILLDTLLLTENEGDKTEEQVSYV

| SMILES | Ki |
| --- | --- |
| Cc1cn2c(n1)C(N1CCN(CC(C)(C)C(=O)O)CC1)=Cc1ccccc1C2 | 63.1 nM |
| CC(C)(CN1CCN(C2=Cc3ccccc3Cn3cc(Cl)nc32)CC1)C(=O)O | 100 nM |
| CC(C)(CN1CCN(C2=Cc3ccccc3Cn3cc(F)nc32)CC1)C(=O)O | 316 nM |
| COc1cnc2n1Cc1ccccc1C=C2N1CCN(CC(C)(C)C(=O)O)CC1 | 158 nM |
| O=C(O)C1CCC(N2CCN(C3=Cc4ccccc4Cn4ccnc43)CC2)CC1 (single isomer, unassigned; isomer 1) | 39.8 nM |
| O=C(O)C1CC(N2CCN(C3=Cc4ccccc4Cn4ccnc43)CC2)C1 (stereo in doubt; 13) | > 794 nM |
| O=C(O)C1CCC(N2CCN(C3=Cc4ccccc4Cn4ccnc43)CC2)CC1 (stereo in doubt; 16) | 25.1 nM |

same assay, conditions: sh-sy5y

| SMILES | pKi |
| --- | --- |
| O=C(O)C1CC(N2CCN(C3=Cc4ccccc4Cn4ccnc43)CC2)C1 (single isomer, unassigned; isomer 2) | < 6.1 |

tested on: not listed separately; assay: Volume of distribution at steady state in rat at 0.5 mg/kg, iv and 1 mg/kg, po; format: ADME, organism-based; conditions: in vivo, read-out: Vdss

| SMILES | Vd |
| --- | --- |
| CC(C)(CN1CCN(C2=Cc3ccccc3Cn3cc(F)nc32)CC1)C(=O)O | 1.1 L/kg |

biological target: Histamine H1 receptor (Homo sapiens, UniProt P35367); assay: Antagonist activity at human recombinant histamine H1 receptor expressed in CHO cells by FLPR assay; format: functional, cell-based; conditions: not given
Sequence (P35367 whole entry): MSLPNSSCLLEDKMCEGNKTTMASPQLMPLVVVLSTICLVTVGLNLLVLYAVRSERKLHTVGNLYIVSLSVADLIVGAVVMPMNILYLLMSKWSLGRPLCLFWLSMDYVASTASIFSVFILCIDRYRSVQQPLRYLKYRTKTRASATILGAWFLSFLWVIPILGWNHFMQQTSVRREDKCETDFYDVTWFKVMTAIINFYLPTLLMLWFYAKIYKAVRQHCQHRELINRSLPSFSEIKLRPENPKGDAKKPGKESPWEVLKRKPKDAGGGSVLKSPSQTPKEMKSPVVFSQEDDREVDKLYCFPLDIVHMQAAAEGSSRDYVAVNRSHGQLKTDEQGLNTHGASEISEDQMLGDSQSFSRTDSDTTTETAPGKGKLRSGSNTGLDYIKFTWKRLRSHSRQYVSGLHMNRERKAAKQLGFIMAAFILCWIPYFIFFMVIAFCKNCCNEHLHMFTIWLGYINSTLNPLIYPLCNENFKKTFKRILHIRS

| SMILES | Ki |
| --- | --- |
| Cc1cn2c(n1)C(N1CCN(CC(C)(C)C(=O)O)CC1)=Cc1ccccc1C2 | 50.1 nM |
| CC(C)(CN1CCN(C2=Cc3ccccc3Cn3cc(F)nc32)CC1)C(=O)O | 39.8 nM |
| COc1cnc2n1Cc1ccccc1C=C2N1CCN(CC(C)(C)C(=O)O)CC1 | 126 nM |
| O=C(O)C1CCC(N2CCN(C3=Cc4ccccc4Cn4ccnc43)CC2)CC1 (single isomer, unassigned; isomer 1) | 126 nM |
| O=C(O)C1CC(N2CCN(C3=Cc4ccccc4Cn4ccnc43)CC2)C1 (single isomer, unassigned; isomer 2) | 25.1 nM |
| O=C(O)C1CC(N2CCN(C3=Cc4ccccc4Cn4ccnc43)CC2)C1 (stereo in doubt; 13) | 12.6 nM |
| O=C(O)C1CCC(N2CCN(C3=Cc4ccccc4Cn4ccnc43)CC2)CC1 (stereo in doubt; 16) | 63.1 nM |

tested on: not listed separately; assay: Fraction unbound in rat blood; format: ADME, tissue-based; conditions: not given

| SMILES | fraction unbound |
| --- | --- |
| CC(C)(CN1CCN(C2=Cc3ccccc3Cn3cc(F)nc32)CC1)C(=O)O | 0.4 |

tested on: not listed separately; assay: Half life in rat at 0.5 mg/kg, iv and 1 mg/kg, po; format: ADME, organism-based; conditions: in vivo

| SMILES | half-life |
| --- | --- |
| CC(C)(CN1CCN(C2=Cc3ccccc3Cn3cc(F)nc32)CC1)C(=O)O | 1.8 h |

tested on: not listed separately; assay: Fraction unbound in rat brain; format: ADME, tissue-based; conditions: not given

| SMILES | fraction unbound |
| --- | --- |
| CC(C)(CN1CCN(C2=Cc3ccccc3Cn3cc(F)nc32)CC1)C(=O)O | 0.45 |
